The source of these data is ChEMBL document CHEMBL1146761, “Synthesis and biological activity of novel platinum(II) complexes of glutamate tethered to hydrophilic hematoporphyrin derivatives” (Bioorg Med Chem Lett, 2004).

Broadly, the IC50 is the concentration that gives 50% inhibition. As usually defined, the T/C is the result in the treated group divided by that in the control group, in per cent.

The test system of one test is L1210. The experiment in a line: In vitro cytotoxicity activity of compound against leukemia L1210 cell line. In kind it is functional, cell-based, Mus musculus.
The subject of test [1] is Mus musculus. Description: In vivo antitumor activity of compound against leukemia L1210 cell line at 60/30 mg/kg; value expressed as 102/106. In kind it is functional.
The subject of test [2] is Mus musculus. Description: In vivo antitumor activity of compound against leukemia L1210 cell line at 60/30 mg/kg; value expressed as 97/107. The test is classed as functional.
The test system of test [3] is Mus musculus. The experiment in a line: In vivo antitumor activity of compound against leukemia L1210 cell line at 4 mg/kg. In kind it is functional, organism-based. Details: dose 4 mg/kg.
Test [4] has as its system Mus musculus. The experiment in a line: In vivo antitumor activity of compound against leukemia L1210 cell line at 40 mg/kg. Also on record: dose 40 mg/kg. The test is classed as functional, organism-based.

Compound CARBOPLATIN [listing 1 of 2 here] gave an IC50 with L1210 (l1210) of 9.92 µM.
Turning to `COCCOCCOCCOC(C)c1c(C)c2cc3[nH]c(cc4nc(cc5nc(cc1[nH]2)C(C)=C5CCC(=O)O)C(CCC(=O)O)=C4C)c(C)c3C(C)OCCOCCOCCOC` (configuration not stated), the T/C in the test with Mus musculus [1] came out at 106%. The concentration for half-maximal inhibition (IC50) in the test with L1210 (Mus musculus, L1210) came to 6.6 µM.
`COCCOC(C)c1c(C)c2cc3[nH]c(cc4nc(cc5nc(cc1[nH]2)C(C)=C5CCC(=O)O)C(CCC(=O)O)=C4C)c(C)c3C(C)OCCOC` (configuration not stated) yielded an IC50 in the test with L1210 (Mus musculus, L1210) of 2.6 µM. The compound further returned a T/C in the test on Mus musculus [2] of 107%.
Compound CISPLATIN displayed a T/C with Mus musculus [3] of 184%.
In the test on Mus musculus [4], CARBOPLATIN [listing 2 of 2 here] returned a T/C of 168%.
